Where “and” joins values, the source holds several entries; their conditions need not be identical. Identical values can stand only once. Entries after “also recorded” stand apart in the source; their conditions may differ. Counter-ions that a name gives are not always drawn. Like-named read-outs stand apart in the source and are kept apart here.

Data set [1] has as its system SARS-CoV (strain Urbani). Put plainly: microbe, parasite or virus in culture. The format is cell-based.
Data set [2] has as its system SARS-CoV (strain Urbani). Put plainly: microbe, parasite or virus in culture. The format is cell-based. The source holds these as a separate data set.
Data set [3] relates to Vero 76 cells. Put plainly: cells. Format: cell-based, African green monkey.
For data set [4], the system named is SARS-CoV Frankfurt-1 strain. Briefly: microbe, parasite or virus in culture. The format is cell-based.
The test system of data set [5] is SARS-CoV CHUK-W1 strain. Put plainly: microbe, parasite or virus in culture. The format is cell-based.
The test system of data set [6] is SARS-CoV Toronto-2 strain. Briefly: microbe, parasite or virus in culture. Format: cell-based.
The test system of data set [7] is SARS-CoV Frankfurt-1 strain. Briefly: microbe, parasite or virus in culture. As to conditions: Severe acute respiratory syndrome coronavirus, Vero 76, read-out: VYR assay EC90 ± S.D. The format is cell-based.
Data set [8] relates to SARS-CoV CHUK-W1 strain. Put plainly: microbe, parasite or virus in culture. As to conditions: Severe acute respiratory syndrome coronavirus, Vero 76, read-out: VYR assay EC90 ± S.D. Format: cell-based.
Data set [9] relates to SARS-CoV Toronto-2 strain. Put plainly: microbe, parasite or virus in culture. The format is cell-based. As to conditions: Severe acute respiratory syndrome coronavirus, Vero 76, read-out: VYR assay EC90 ± S.D.
The subject of data set [10] is SARS-CoV.
Data set [11] relates to SARS-CoV (Urbani). Further details: species or system BALB/c mice. The following applies: mouse, in vivo.
For data set [12], the system named is BALB/c mice. As to conditions: mouse, in vivo, ip.
Data set [13] deals with lungs. The following applies: mouse, in vivo.
The subject of data set [14] is mice. The following applies: mouse, in vivo, ip; cited from earlier work.
The mark [15] stands for this setting: read-out: Neutral red uptake assay EC50.
Where [16] appears, read: read-out: Virus yield reduction assay EC90.
[17] abbreviates: read-out: Neutral red uptake assay IC50.
Setting [18] is: read-out: Virus yield reduction assay IC50.
The mark [19] stands for this setting: Chlorocebus sabaeus, Vero 76, read-out: Neutral red uptake assay IC50.
Setting [20] is: Severe acute respiratory syndrome coronavirus, Vero 76, read-out: Neutral red uptake assay EC50.
[21] abbreviates: Severe acute respiratory syndrome coronavirus, Vero 76, read-out: Virus yield reduction assay EC90.
Setting [22] is: Chlorocebus sabaeus, Vero 76, read-out: Virus yield reduction assay IC50.
The mark [23] stands for this setting: Severe acute respiratory syndrome coronavirus, Vero 76, read-out: Neutral red uptake assay EC50 ± S.D.

In general, EC50 refers to the concentration at which the effect is half-maximal. By EC90 is commonly meant the point of the concentration-response curve where the effect stands at 90%. By IC50 is commonly meant the midpoint of a concentration-inhibition curve. As to `CCOS(=O)(=O)[O-].CC[n+]1c2ccccc2nc2ccccc21` [Phenazine ethosulfate], the “Neutral red uptake assay SI” value in data set [1] is recorded as 1.3. In addition, the EC50 in data set [1] (setting [15]) turned out to be 5.2 ± 2.9 µM. In addition, the “Virus yield reduction assay SI” value in data set [2] amounted to 1.1. In addition, the EC90 in data set [2] (setting [16]) is 6.1 ± 4.3 µM. The IC50 in data set [3] (setting [17]) and in data set [3] (setting [18]) was 6.6 ± 4.7 µM throughout.
Turning to `c1ccc2c(c1)Nc1ccccc1S2` [Phenothiazine], the “Neutral red uptake assay SI” value in [1] amounted to 2.6. For the same molecule, in [3] (setting [19]), the IC50 came to 56.5 ± 61.5 µM.
Take `c1ccc2c(c1)Oc1ccccc1S2` [Phenoxathiin]: the “Neutral red uptake assay SI” value in [1] amounted to 1.1. The EC50 in data set [1] (setting [20]) stood at 763 ± 475 µM. Also, the “Virus yield reduction assay SI” value in data set [2] was 1.3. Also, in data set [2] (setting [21]), the EC90 is 752 ± 497 µM. Also, the IC50 in data set [3] (setting [19]) worked out at 858 ± 208 µM; in data set [3] (setting [22]) it was 968 ± 65 µM.
On to `c1ccc2c(c1)Nc1ccccc1O2` [Phenoxazine], for which, in [1], the “Inhibition of virus replication in vitro (in words)” value is “essentially inactive” and the “Neutral red uptake assay SI” value was below 1. Besides, in [3] (setting [19]), the half-maximal inhibitory concentration (IC50) was determined as 74.5 ± 20.2 µM.
As to `CN(C)CCCN1c2ccccc2Sc2ccccc21` [Promazine, 10-(3-(dimethylamino)propyl)phenothiazine], the “Neutral red uptake assay SI” value in [1] was 1.2 and <1; in data set [4], 1.6; in data set [5], 2.2; in data set [6], 1.5. In addition, the EC50 in [1] (setting [20]) was 10.8 ± 8.1 µM; in data set [1] (setting [23]), 14 ± 6.1 µM; in data set [4] (setting [23]), 21 ± 15.4 µM; in [5] (setting [23]) it was 15.6 ± 8.5 µM; in data set [6] (setting [23]) it was 22.6 ± 12.8 µM. Further, in [2], the “Virus yield reduction assay SI” value came to 2.1. Besides, the concentration for an effect of 90% (EC90) in data set [2] (Severe acute respiratory syndrome coronavirus, Vero 76, read-out: VYR assay EC90 ± S.D.) was found to be 7.8 ± 3.1 µM; in data set [2] (setting [21]), 8.3 ± 2.8 µM; in data set [7], 11.6 ± 6.3 µM; in [8], 16.5 ± 11.1 µM; in data set [9], 20.7 ± 9.5 µM. For the same molecule, the values for the IC50 in [3] (setting [19]) and in [3] (setting [22]) were 13.5 ± 6.2 µM and 18.2 ± 14.6 µM, respectively. Moreover, in data set [10], the “Virucidal activity (virus titer reduction after exposure)” value is on record as “did not result in virus titer reduction”. In [11], the “Duration of virus replication in the lungs (in words)” value is given as “prolonged virus replication to 14 days; also recorded: significantly prolonged”. The “Virus titer ± S.D., Day 3” value in [11] was 5.6 ± 1.0 Log10 CCID50/g and 5.6 ± 0.4 Log10 CCID50/g and 5.7 ± 0.3 Log10 CCID50/g and 5.6 ± 0.0 Log10 CCID50/g and 5.8 ± 0.4 Log10 CCID50/g and 6.0 ± 0.6 Log10 CCID50/g; in [11] (ip), 5.6 ± 0.0 Log10 CCID50/g and 6.0 ± 0.6 Log10 CCID50/g and 5.4 ± 0.1 Log10 CCID50/g. In [11], the “Virus titer ± S.D., Day 14” value is 3.4 ± 0.1 Log10 CCID50/g and 3.4 ± 0.0 Log10 CCID50/g. For the same molecule, the “Inhibition of virus replication in the lungs, therapeutic treatment (in words)” value in data set [11] (ip) is recorded as “not efficacious”. Further, in [11] (ip), the “Reduction of viral replication in the lungs at day 3 (in words)” value is “did not reduce virus lung titers; also recorded: no significant reduction”. For the same molecule, the “Virus titer ± S.D., Day 7” value in [11] (ip) is recorded as below 0.75 Log10 CCID50/g. The Lethality entry in data set [12] (BALB/c) was “lethal to all mice by day 3”; in [12], “somewhat lethal”. For the same molecule, the “Histopathological examination of lungs” value in data set [13] is “no signs of pathology”. For the same molecule, the LD50 in data set [14] is reported as 140 mg/(kg day).
For the molecule `CCC(=O)c1ccc2c(c1)N(CCCN(C)C)c1ccccc1S2` [Propionylpromazine·HCl], in [1], the “Inhibition of virus replication in vitro (in words)” value is “essentially inactive” and the “Neutral red uptake assay SI” value is listed as below 1. Also, the EC50 in [1] (setting [20]) worked out at 24.3 ± 15.6 µM. Moreover, the “Virus yield reduction assay SI” value in data set [2] was found to be 1.4. In addition, the IC50 in data set [3] (setting [22]) was determined as 19.3 ± 2.2 µM.
For `CN1CCN(CCCN2c3ccccc3Sc3ccc(C(F)(F)F)cc32)CC1` [Trifluoperazine dimaleate], in data set [1], the “Neutral red uptake assay SI” value came to 1.3. For the same molecule, the EC50 in [1] (setting [20]) is 7.3 ± 4.7 µM. In data set [2], the “Virus yield reduction assay SI” value is on record as below 1. Moreover, the concentration for an effect of 90% (EC90) in data set [2] (setting [16]) was found to be 10.2 ± 4.4 µM. The IC50 was found to be 9.5 ± 3.1 µM in [3] (setting [19]) and 8 ± 2.1 µM in [3] (setting [22]).
For `CN(C)CCCN1c2ccccc2Sc2ccc(C(F)(F)F)cc21.Cl` [Trifluopromazine·HCl], the “Neutral red uptake assay SI” value in data set [1] is listed as 1.4. For the same molecule, the EC50 in [1] (setting [15]) came out at 13.3 ± 5.8 µM. Also, the “Virus yield reduction assay SI” value in data set [2] is 1.4. For the same molecule, the EC90 in data set [2] (setting [16]) was 12.8 ± 1.9 µM. Further, the half-inhibitory concentration (IC50) in data set [3] (setting [17]) and in data set [3] (setting [18]) was 18 ± 5.6 µM each time.
